# Assay results: ChEMBL document CHEMBL5370530, “Discovery of 2,5-diaminopyrimidine derivatives as the first series of selective monomeric degraders of B-lymphoid tyrosine kinase” (Eur J Med Chem, 2023)
# The source made the active and inactive calls. The calls are words filed in the database; no cut-off is given here.
# Experiments:
# A-431 = assay: Antiproliferative activity against human A-431 cells at 0.1 to 0.3 uM measured after 72 hrs by cell titer glo luminescent cell viability assay; type: functional, cell-based; conditions: dose 0.1-0.3 µM
# DOHH-2 [1] = assay: Downregulation of CDK2 level in human DOHH-2 cells at 1 uM measured after 48 hrs by Western blot analysis; type: functional, cell-based
# SUD4 [2] = assay: Antiproliferative activity against human SU-DHL-4 cells at 0.1 to 0.3 uM measured after 72 hrs by cell titer glo luminescent cell viability assay; type: functional, cell-based; conditions: dose 0.1-0.3 µM
# SU-DHL-6 [3] = assay: Growth inhibition of human SU-DHL-6 cells measured after 72 hrs by cell titer glo luminescent cell viability assay; type: functional
# [4] = molecular target: Tyrosine-protein kinase SYK (Homo sapiens, UniProt P43405); assay: Inhibition of SYK phosphorylation in human Ramos cells incubated for 1 hr; type: cell-based
# RPMI-8226 = assay: Antiproliferative activity against human RPMI-8226 cells at 0.1 to 0.3 uM measured after 72 hrs by cell titer glo luminescent cell viability assay; type: functional, cell-based; conditions: dose 0.1-0.3 µM
# A-375 = assay: Antiproliferative activity against human A-375 cells at 0.1 to 0.3 uM measured after 72 hrs by cell titer glo luminescent cell viability assay; type: functional, cell-based; conditions: dose 0.1-0.3 µM
# NAMALVA = assay: Antiproliferative activity against human NAMALVA cells at 0.1 to 0.3 uM measured after 72 hrs by cell titer glo luminescent cell viability assay; type: functional, cell-based; conditions: dose 0.1-0.3 µM
# [5] = molecular target: Tyrosine-protein kinase BTK (Homo sapiens, UniProt Q06187); assay: Inhibition of full length N-terminal GST tagged BTK (2 to 659 end residues) (unknown origin) expressed in Sf21insect cells by time resolved fluorescence based assay; design: species or system Sf21
# Tyrosine-protein kinase BTK, sequence (Q06187 whole entry): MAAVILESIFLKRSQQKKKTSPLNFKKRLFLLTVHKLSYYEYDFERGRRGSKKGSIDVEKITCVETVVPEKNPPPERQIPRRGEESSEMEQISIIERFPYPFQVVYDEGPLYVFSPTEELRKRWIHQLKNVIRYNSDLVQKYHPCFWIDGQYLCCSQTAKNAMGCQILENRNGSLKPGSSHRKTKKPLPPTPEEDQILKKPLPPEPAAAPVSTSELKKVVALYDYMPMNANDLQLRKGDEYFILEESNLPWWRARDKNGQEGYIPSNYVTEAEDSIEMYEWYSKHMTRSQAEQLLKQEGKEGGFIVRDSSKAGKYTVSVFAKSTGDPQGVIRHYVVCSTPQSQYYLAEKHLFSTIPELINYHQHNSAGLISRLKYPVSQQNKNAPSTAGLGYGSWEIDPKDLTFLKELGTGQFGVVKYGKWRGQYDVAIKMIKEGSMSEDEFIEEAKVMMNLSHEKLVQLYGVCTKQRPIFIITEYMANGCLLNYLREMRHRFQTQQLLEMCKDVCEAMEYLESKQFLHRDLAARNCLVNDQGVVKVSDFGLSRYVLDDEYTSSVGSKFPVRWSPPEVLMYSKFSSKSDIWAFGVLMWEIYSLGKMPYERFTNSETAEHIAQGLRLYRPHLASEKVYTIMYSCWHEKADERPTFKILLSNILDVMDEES
# Raji = assay: Antiproliferative activity against human Raji cells at 0.1 to 0.3 uM measured after 72 hrs by cell titer glo luminescent cell viability assay; type: functional, cell-based; conditions: dose 0.1-0.3 µM
# 6T-CEM = assay: Antiproliferative activity against human 6T-CEM cells at 0.1 to 0.3 uM measured after 72 hrs by cell titer glo luminescent cell viability assay; type: functional, cell-based; conditions: dose 0.1-0.3 µM
# HBL1 = assay: Antiproliferative activity against human HBL1 cells at 0.1 to 0.3 uM measured after 72 hrs by cell titer glo luminescent cell viability assay; type: functional, cell-based; conditions: dose 0.1-0.3 µM
# OPM-2 = assay: Antiproliferative activity against human OPM-2 cells at 0.1 to 0.3 uM measured after 72 hrs by cell titer glo luminescent cell viability assay; type: functional, cell-based; conditions: dose 0.1-0.3 µM
# MOLT-4 = assay: Antiproliferative activity against human MOLT-4 cells at 0.1 to 0.3 uM measured after 72 hrs by cell titer glo luminescent cell viability assay; type: functional, cell-based; conditions: dose 0.1-0.3 µM
# SU-DHL-6 [6] = assay: Antiproliferative activity against human SU-DHL-6 cells at 0.1 to 0.3 uM measured after 72 hrs by cell titer glo luminescent cell viability assay; type: functional, cell-based; conditions: dose 0.1-0.3 µM
# CCRF-CEM = assay: Antiproliferative activity against human CCRF-CEM cells at 0.1 to 0.3 uM measured after 72 hrs by cell titer glo luminescent cell viability assay; type: functional, cell-based; conditions: dose 0.1-0.3 µM
# SUD4 [7] = assay: Growth inhibition of human SU-DHL-4 cells measured after 72 hrs by cell titer glo luminescent cell viability assay; type: functional
# SU-DHL-6 [8] = assay: Downregulation of CDK2 level in human SU-DHL-6 cells at 1 uM measured after 48 hrs by Western blot analysis; type: functional, cell-based
# A549 = assay: Antiproliferative activity against human A549 cells at 0.1 to 0.3 uM measured after 72 hrs by cell titer glo luminescent cell viability assay; type: functional, cell-based; conditions: dose 0.1-0.3 µM
# [9] = molecular target: Tyrosine-protein kinase Lck (Homo sapiens) (UniProt P06239); assay: Induction of degradation of LCK in human Jurkat cells assessed as maximum degradation at > 1 uM incubated for 12 hrs by Western blot analysis relative to control; type: cell-based
# Tyrosine-protein kinase Lck (Homo sapiens), sequence (P06239 2-509 limits assumed): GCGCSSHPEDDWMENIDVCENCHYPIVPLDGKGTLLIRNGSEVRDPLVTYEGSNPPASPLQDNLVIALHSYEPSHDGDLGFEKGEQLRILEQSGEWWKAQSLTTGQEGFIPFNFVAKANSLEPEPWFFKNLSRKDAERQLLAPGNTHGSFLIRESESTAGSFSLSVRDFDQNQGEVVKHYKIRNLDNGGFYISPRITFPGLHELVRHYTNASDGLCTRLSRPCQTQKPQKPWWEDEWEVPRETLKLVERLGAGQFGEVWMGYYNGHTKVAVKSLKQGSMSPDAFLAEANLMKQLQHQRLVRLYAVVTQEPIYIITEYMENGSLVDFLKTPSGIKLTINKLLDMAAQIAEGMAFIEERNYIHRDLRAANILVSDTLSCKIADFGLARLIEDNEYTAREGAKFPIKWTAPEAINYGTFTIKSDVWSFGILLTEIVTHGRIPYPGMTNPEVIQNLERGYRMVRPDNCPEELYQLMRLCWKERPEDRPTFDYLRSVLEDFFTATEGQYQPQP
# Ramos [10] = assay: Antiproliferative activity against human Ramos cells at 0.1 to 0.3 uM measured after 72 hrs by cell titer glo luminescent cell viability assay; type: functional, cell-based; conditions: dose 0.1-0.3 µM
# Jurkat = assay: Antiproliferative activity against human Jurkat cells at 0.1 to 0.3 uM measured after 72 hrs by cell titer glo luminescent cell viability assay; type: functional, cell-based; conditions: dose 0.1-0.3 µM
# DOHH-2 [11] = assay: Growth inhibition of human DOHH-2 cells measured after 72 hrs by cell titer glo luminescent cell viability assay; type: functional
# RS4-11 = assay: Antiproliferative activity against human RS4-11 cells at 0.1 to 0.3 uM measured after 72 hrs by cell titer glo luminescent cell viability assay; type: functional, cell-based; conditions: dose 0.1-0.3 µM
# OCI-Ly7 = assay: Antiproliferative activity against human OCILY7 cells at 0.1 to 0.3 uM measured after 72 hrs by cell titer glo luminescent cell viability assay; type: functional, cell-based; conditions: dose 0.1-0.3 µM
# Pfeiffer = assay: Antiproliferative activity against human Pfeiffer cells at 0.1 to 0.3 uM measured after 72 hrs by cell titer glo luminescent cell viability assay; type: functional, cell-based; conditions: dose 0.1-0.3 µM
# DOHH-2 [12] = assay: Antiproliferative activity against human DOHH-2 cells at 0.1 to 0.3 uM measured after 72 hrs by cell titer glo luminescent cell viability assay; type: functional, cell-based; conditions: dose 0.1-0.3 µM
# PC-9 = assay: Antiproliferative activity against human PC-9 cells at 0.1 to 0.3 uM measured after 72 hrs by cell titer glo luminescent cell viability assay; type: functional, cell-based; conditions: dose 0.1-0.3 µM
# TMD8 = assay: Antiproliferative activity against human TMD8 cells at 0.1 to 0.3 uM measured after 72 hrs by cell titer glo luminescent cell viability assay; type: functional, cell-based; conditions: dose 0.1-0.3 µM
# Ramos [13] = assay: (§1) Downregulation of BLK level in human Ramos cells at 0.3 uM measured after 12 hrs by Western blot analysis; type: functional
# [14] = as §1; type: functional
structure (smiles),measurement,setting,value
Cc1ccc(NC(=O)c2ccc(-c3cccc(C(F)(F)F)c3)cc2)cc1C(=O)Nc1cnc(Nc2cccc(N)c2)nc1,Activity,A-431,inactive
same,Activity,DOHH-2 [1],Active
same,Activity,SUD4 [2],Active
same,GI50,SU-DHL-6 [3],360 nM
same,IC50,[4],2900 nM
same,Activity,RPMI-8226,inactive
same,Activity,A-375,inactive
same,Activity,NAMALVA,inactive
same,IC50,[5],2560 nM
same,Activity,Raji,inactive
same,Activity,6T-CEM,inactive
same,Activity,HBL1,inactive
same,Activity,OPM-2,inactive
same,Activity,MOLT-4,inactive
same,Activity,SU-DHL-6 [6],Active
same,Activity,CCRF-CEM,inactive
same,GI50,SUD4 [7],180 nM
same,Activity,SU-DHL-6 [8],Active
same,Activity,A549,inactive
same,Emax,[9],< 50%
same,Activity,Ramos [10],inactive
same,Activity,Jurkat,inactive
same,GI50,DOHH-2 [11],130 nM
same,Activity,RS4-11,inactive
same,Activity,OCI-Ly7,inactive
same,Activity,Pfeiffer,Active
same,Activity,DOHH-2 [12],Active
same,Activity,PC-9,inactive
same,Activity,TMD8,inactive
Cc1ccc(NC(=O)Cc2ccc(-c3ccccc3)cc2)cc1C(=O)Nc1cnc(Nc2cccc(N)c2)nc1,GI50,SU-DHL-6 [3],6200 nM
same,IC50,[5],5810 nM
same,GI50,SUD4 [7],8900 nM
same,Emax,[9],< 50%
same,GI50,DOHH-2 [11],2500 nM
C=CC(=O)N1CCC(c2cccc(Nc3ncc(NC(=O)c4cc(NC(=O)c5ccc6cnccc6c5)ccc4C)cn3)c2)CC1,Activity,Ramos [13],Active
Cc1ccc(NC(=O)c2ccc3cnccc3c2)cc1C(=O)Nc1cnc(Nc2cccc(C3CCN(C(=O)/C=C/CN(C)C)CC3)c2)nc1,Activity,Ramos [13],Active
Cc1nc(Nc2ncc(C(=O)Nc3c(C)cccc3Cl)s2)cc(N2CCN(CCO)CC2)n1,Activity,Ramos [13],Active
C=CC(=O)N1CCC[C@@H](n2nc(-c3ccc(Oc4ccccc4)cc3)c3c(N)ncnc32)C1,Activity,Ramos [13],inactive
C=CC(=O)Nc1cccc(Nc2nc(Nc3ccc(OCCOC)cc3)ncc2F)c1,Activity,Ramos [13],Active
CN1CCN(CCOc2cc(OC3CCOCC3)c3c(Nc4c(Cl)ccc5c4OCO5)ncnc3c2)CC1,Activity,Ramos [13],Active
Cc1ccc(NC(=O)CC23C[C@H]4C[C@@H](C2)C[C@@H](C3)C4)cc1C(=O)Nc1cnc(Nc2cccc(N)c2)nc1,IC50,[5],338 nM
Cc1ccc(NC(=O)c2ccc(Oc3ccccc3)cc2)cc1C(=O)Nc1cnc(Nc2cccc(N)c2)nc1,IC50,[4],2730 nM
same,IC50,[5],991 nM
same,Emax,[9],< 50%
Cc1ccc(NC(=O)c2ccc3ccccc3c2)cc1C(=O)Nc1cnc(Nc2cccc(N)c2)nc1,IC50,[4],< 100 nM
C=CC(=O)NCCC(=O)c1cccc(Nc2ncc(NC(=O)c3cc(NC(=O)c4cccc(-c5ccc(F)cc5)c4)ccc3C)cn2)c1,Activity,[14],>85%
Cc1ccc(-c2nn(C(C)(C)C)c3ncnc(N)c23)cc1,GI50,SU-DHL-6 [3],4700 nM
same,GI50,SUD4 [7],> 10000 nM
same,GI50,DOHH-2 [11],3700 nM
same,Activity,Ramos [13],inactive
CCC(=O)Nc1cccc(Nc2ncc(NC(=O)c3cc(NC(=O)c4cccc(C(F)(F)F)c4)ccc3C)cn2)c1,IC50,[4],< 100 nM
same,Activity,[14],>85%
Cc1ccc(NC(=O)C[C@@]23C[C@@H]4C[C@@H](C[C@@](O)(C4)C2)C3)cc1C(=O)Nc1cnc(Nc2cccc(N)c2)nc1,IC50,[5],855 nM
